# Laboratory results as given in patent publication US4745124A, “Orally effective anti-hypertensive agents” (priority 1983, dated 1988).
# Where “and” joins values, the source holds several entries; their conditions need not be identical. Equal values may be shown once.
# Experiments:
# [1] = test system: serum ACE; test: oral effectiveness: intrinsic serum ACE activity in unanesthetized rabbits; type: in vivo; conditions: oral 1 mg, about 1 kg rabbit
# Protocol: A. ACE activity assay. For most experiments described herein, the enzyme ACE was assayed in 0.05M Hepes buffer, pH 8.0 containing 0.1M NaCl and 0.75M Na2 SO4. The substrate employed was Benzoyl-GlyHisLeu at a final concentration of 1×10^-4 M, together with about 130,000 cpm of [^3 H]-Benzoyl GlyHisLeu (25 Ci/mmole). Enzyme was diluted in the above buffer such that 40 μl buffered enzyme was capable of hydrolyzing 13% of substrate in a 15-minute incubation at 37° C. To initiate the assay, 40 μl of enzyme and 10 μl of water or inhibitor dissooved in water were preincubated for five minutes at 37° C. Substrate, 50 μl, was then added to initiate reaction and the solution was incubated for 15 minutes at 37° C. To terminate the reaction, 1 ml of 0.1M HCl was added, following which 1 ml of ethyl acetate was added. The mixture was agitated on a rotary mixer and centrifuged briefly to separate the phases.
# Young, unanesthetized rabbits, fasted overnight, weighing about 1 kg, were given compound (I). The compound was dissolved in water at alkaline pH, 1 mg of (I) in 3 ml water containing 50 μl 1N NaHCO3. Blood samples, 0.5 ml, were collected at timed intervals from a marginal ear vein. Sera obtained after clot formation and centrifugation were assayed for intrinsic ACE activity, using 1 μl in the assay of Example 216A.
# [2] = resistance of thioester compounds to alkaline hydrolysis; type: physicochemical
# Description: Therefore the observed inhibitory effects cannot be accounted for by postulating spontaneous hydrolysis of the thioester bond to regenerate the free sulfhydryl group.
# [3] = molecular target: T1, angiotensin converting enzyme (human urinary ACE) (Homo sapiens, UniProt P12821); test: ACE activity assay, I50 (Example 216A); type: biochemical; conditions: human urinary ACE; Benzoyl-GlyHisLeu 1×10^-4 M; Hepes pH 8.0; 37° C; in vitro; read-out: I50
# T1 construct: ACE purified from human urine; from tissue; host or cells: human urine (ultrafiltration and Sephacryl S-200, first eluting peak; prepared as in Ryan et al., Tissue and Cell 10, 555 (1978))
# T1 sequence (P12821 30-1232 limits assumed): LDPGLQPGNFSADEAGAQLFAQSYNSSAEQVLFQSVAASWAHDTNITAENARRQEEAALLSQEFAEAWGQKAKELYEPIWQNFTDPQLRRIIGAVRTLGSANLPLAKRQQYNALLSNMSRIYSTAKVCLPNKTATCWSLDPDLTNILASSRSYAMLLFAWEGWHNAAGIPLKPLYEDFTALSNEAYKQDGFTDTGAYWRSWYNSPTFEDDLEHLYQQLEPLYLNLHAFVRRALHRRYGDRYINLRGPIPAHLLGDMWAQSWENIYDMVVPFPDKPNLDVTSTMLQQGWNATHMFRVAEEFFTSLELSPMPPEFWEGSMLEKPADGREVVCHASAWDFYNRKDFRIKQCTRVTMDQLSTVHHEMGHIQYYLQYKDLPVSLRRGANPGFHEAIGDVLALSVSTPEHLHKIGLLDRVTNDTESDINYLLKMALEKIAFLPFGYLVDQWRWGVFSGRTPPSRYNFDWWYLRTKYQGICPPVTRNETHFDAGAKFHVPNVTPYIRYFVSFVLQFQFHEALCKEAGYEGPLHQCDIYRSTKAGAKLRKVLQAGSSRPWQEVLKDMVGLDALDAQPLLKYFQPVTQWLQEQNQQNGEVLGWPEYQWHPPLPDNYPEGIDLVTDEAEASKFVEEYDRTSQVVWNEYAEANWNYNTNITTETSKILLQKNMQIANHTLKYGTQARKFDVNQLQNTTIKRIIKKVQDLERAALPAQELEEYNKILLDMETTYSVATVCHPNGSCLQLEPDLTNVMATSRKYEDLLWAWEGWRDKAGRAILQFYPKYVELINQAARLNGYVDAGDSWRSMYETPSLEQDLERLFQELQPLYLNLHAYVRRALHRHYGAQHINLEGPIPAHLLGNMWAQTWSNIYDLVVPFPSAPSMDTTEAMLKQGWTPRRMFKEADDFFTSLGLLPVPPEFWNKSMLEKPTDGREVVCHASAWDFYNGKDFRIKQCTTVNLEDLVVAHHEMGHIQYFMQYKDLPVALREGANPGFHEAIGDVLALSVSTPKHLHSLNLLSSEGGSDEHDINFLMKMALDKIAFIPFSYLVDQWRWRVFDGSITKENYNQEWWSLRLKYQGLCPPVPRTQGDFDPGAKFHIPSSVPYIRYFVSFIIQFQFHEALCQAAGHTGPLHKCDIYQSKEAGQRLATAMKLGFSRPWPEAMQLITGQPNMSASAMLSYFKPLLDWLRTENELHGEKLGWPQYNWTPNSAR
compound,measurement,setting,value
"C[C@H](CSC(=O)C(Cc1ccccc1)NC(=O)c1ccccc1)C(=O)N1CCC[C@H]1C(=O)O (stereo partly drawn) [Compound (I), 2-benzoylphenylalanylthio-2-D-methylpropanoyl-L-proline]",Serum ACE activity,"[1]; 0.167 h, Rabbit 1",7% of Control
same,Serum ACE activity,"[1]; 0.167 h, Rabbit 2",11% of Control
same,Serum ACE activity,"[1]; 0.33 h, Rabbit 1",8% of Control
same,Serum ACE activity,"[1]; 0.33 h, Rabbit 2",9% of Control
same,Serum ACE activity,"[1]; 0.5 h, Rabbit 1",7% of Control
same,Serum ACE activity,"[1]; 0.5 h, Rabbit 2",8% of Control
same,Serum ACE activity,"[1]; 1.0 h, Rabbit 1",20% of Control
same,Serum ACE activity,"[1]; 1.0 h, Rabbit 2",44% of Control
same,Serum ACE activity,"[1]; 1.5 h, Rabbit 1",14% of Control
same,Serum ACE activity,"[1]; 1.5 h, Rabbit 2",55% of Control
same,Serum ACE activity,"[1]; 2.0 h, Rabbit 1",11% of Control
same,Serum ACE activity,"[1]; 2.0 h, Rabbit 2",44% of Control
same,Serum ACE activity,"[1]; 2.5 h, Rabbit 1",12% of Control
same,Serum ACE activity,"[1]; 2.5 h, Rabbit 2",40% of Control
same,Serum ACE activity,"[1]; 3.0 h, Rabbit 1",30% of Control
same,Serum ACE activity,"[1]; 4.0 h, Rabbit 1",23% of Control
same,Serum ACE activity,"[1]; 5.0 h, Rabbit 1",19% of Control
same,Serum ACE activity,"[1]; 20.0 h, Rabbit 1",70% of Control
same,resistance to alkaline hydrolysis,[2],surprisingly resistant to alkaline hydrolysis
same,hydrolysis at pH 9.5 in 1M NaHCO3,"[2]; pH 9.5, 1M NaHCO3",not hydrolyzed
same,IC50,[3],40 nM and 10 nM
